From patent publication US20080293727A1, “Novel sulfonamide inhibitors of aspartyl protease” (priority 1992, published 2008) come the findings set out here.

Where a name gives a salt, the structure may show the parent alone. Read-outs that look alike come from different tables or passages of the source.

One assay concerns the target HIV-1 protease (Human immunodeficiency virus type 1 group M subtype B, UniProt P04585). Kind of assay: Inhibition constants against HIV-1 protease (method of Pennington et al.). The format is biochemical. The text has this: We measured the inhibition constants of the compounds listed in Table VII against HIV-1 protease using the above-cited method of Pennington et al.

Assay [1] concerns HIVIIIb in CCRM-CEM cells. The experiment in a line: Anti-viral potency in CCRM-CEM cells acutely infected with HIVIIIb, extracellular p24 antigen readout (method of Meek et al.). In kind it is cell-based, HIV-1. As to the method: Compounds of formula I were tested for their antiviral potency in several virological assays.
The effect of the compounds on inhibiting the replication of the virus was measured by determining the HIV extracellular p24 antigen concentration using a commercial enzyme immunoassay (obtained from Coulter Corporation, Hialeah, Fla.).
In Table VIII, the following classifications have been employed: • A: inhibits HIV replication at concentration of 100 nM or less. • B: inhibits HIV replication at concentration of between 101 and 1,000 nM. • C: inhibits HIV replication at a concentration of between 1,001 and 10,000 nM. • D: inhibits HIV replication at a concentration of between 10,001 and 40,000 nM. • ND: not tested.

[2] abbreviates: HIV-1 protease, read-out: Ki value.
Setting [3] is: CCRM-CEM cells, HIV replication, read-out: IC90 Range.
Where [4] appears, read: Human immunodeficiency virus 1, read-out: IC90 Range.
[5] abbreviates: Human immunodeficiency virus 1, CCRM-CEM cells, HIV replication, read-out: IC90 Range.

For `CC(C)CN(CC(O)[C@H](Cc1ccccc1)NC(=O)[C@H](CC(N)=O)NC(=O)c1ccc2ccccc2n1)S(=O)(=O)c1ccc(-c2ccccn2)s1` (stereo partly drawn) [Compound 12, (S)-N-1-(1-(S)-Benzyl-2-(syn)-hydroxyl-3-(isobutyl-(5-pyridin-2-yl-thiophene-2-sulfonyl)-amino)-propyl)-2-((quinoline-2-carbonyl)-amino)-succinamide], the Ki at HIV-1 protease (setting [2]) was determined as 0.1 nM. Moreover, in assay [1] (setting [3]), the IC90 was under 100 nM.
The like results for `CC(=O)Nc1ccc(S(=O)(=O)N(CC(C)C)CC(O)[C@H](Cc2ccccc2)NC(=O)C(CC(N)=O)C(=O)OCc2ccncc2)cc1` (stereo partly drawn) [Compound 23, N-1-(3-((4-Acetylamino-benzenesulfonyl)-isobutyl-amino)-(1S,2 syn)-1-benzyl-2-hydroxy-propyl)-2-(pyridin-4-yl-methoxycarbonyl)-succinamide] were, in that order, 1.5 nM and 101 to 1000 nM.
As for `CC(C)CN(C[C@@H](O)[C@H](Cc1ccccc1)NC(=O)C(CC(N)=O)C(=O)OCc1ccccn1)S(=O)(=O)c1ccc(F)cc1` (stereo partly drawn) [Compound 26, N-1-(3-((4-Fluoro-benzenesulfonyl)-isobutyl-amino)-(1S,2 syn)-1-benzyl-2-hydroxy-propyl)-2-(pyridin-2-yl-methoxycarbonyl)-succinamide], on HIV-1 protease (setting [2]), the Ki is 0.1 nM. In addition, in assay [1] (setting [3]), the IC90 lay in the range of 101 to 1000 nM.
`CC(C)CN(C[C@@H](O)[C@H](Cc1ccccc1)NC(=O)OC(C)(C)C)S(=O)(=O)c1ccccc1F` [Compound 47]: at HIV-1 protease (setting [2]), the Ki came out at 4 nM. Moreover, the IC90 in assay [1] (setting [4]) was in the range of 1000 to 10000 nM.
Consider `CC(C)CN(CC(O)[C@H](Cc1ccccc1)NC(=O)O[C@@H]1CCOC1)S(=O)(=O)c1ccc(F)cc1` (stereo partly drawn) [Compound 52, 4-Fluoro-N-((2 syn,3S)-2-hydroxy-4-phenyl-3-((R)-tetrahydrofuran-3-yloxycarbonylamino)-butyl)-N-isobutyl-benzenesulfonamide and 4-Fluoro-N-((2 syn,3S)-2-hydroxy-4-phenyl-3-((R)-tetrahydrofuran-3-yloxycarbonylamino)-butyl)-N-isobutyl-benzenesulfonamide], for which, on HIV-1 protease (setting [2]), the Ki was 0.4 nM. Further, in assay [1] (setting [3]), the IC90 fell in the range of 101 to 1000 nM.
Turning to `CC(C)CN(CC(O)C(Cc1ccccc1)NC(=O)OCC1CCOC1)S(=O)(=O)c1ccc(Cl)c(Cl)c1` (stereo not drawn) [Compound 85], the Ki at HIV-1 protease (setting [2]) was 4 nM. Besides, the IC90 in assay [1] (setting [4]) lay in the range of 1000 to 10000 nM.
For `CC(=O)Nc1ccc(S(=O)(=O)N(CC(C)C)CC(O)C(Cc2ccccc2)NC(=O)OC2CCOC2)cc1` [Compound 86, N-(4-(((2 syn,3S)-2-Hydroxy-4-phenyl-3-((R)-tetrahydrofuran-3-yloxycarbonylamino)-butyl)-isobutyl-sulfamoyl-phenyl)-acetamide and N-(4-(((2 syn,3S)-2-Hydroxy-4-phenyl-3-((S)-tetrahydrofuran-3-yloxycarbonylamino)-butyl)-isobutyl-sulfamoyl)-phenyl)-acetamide], on HIV-1 protease (setting [2]), the Ki came to 5 nM. For the same molecule, the IC90 in assay [1] (setting [4]) lay in the range of 101 to 1000 nM.
Take `CC(C)CN(CC(O)[C@H](Cc1ccccc1)NC(=O)O[C@H]1CCOC1)S(=O)(=O)c1cccnc1` (stereo partly drawn) [Compound 144, Pyridine-3-sulfonic acid ((2 syn,3S)-2-hydroxy-4-phenyl-3-((S)-tetrahydrofuran-3-yloxycarbonylamino)-butyl)-isobutyl-amide, trifluoroacetic acid salt]: the Ki on HIV-1 protease (setting [2]) was 8 nM. Further, in assay [1] (setting [3]), the IC90 lay within 101 to 1000 nM.
As to `CC(=O)N1CCc2ccc(S(=O)(=O)N(CC3CCCC3)CC(O)[C@H](Cc3ccccc3)NC(=O)O[C@H]3CCOC3)cc21` (stereo partly drawn) [Compound 157, 1-Acetyl-2,3-dihydro-1H-indole-6-sulfonic acid cyclopentylmethyl-((2 syn, 3S)-2-hydroxy-4-phenyl-3-((S)-tetrahydrofuran-3-yloxycarbonylamino)-butyl)-amide], the Ki on HIV-1 protease (setting [2]) was 0.7 nM. In addition, in assay [1] (setting [3]), the 90% effect concentration (IC90) was 101 to 1000 nM.
For the molecule `CC(C)CN(C[C@@H](O)[C@H](Cc1ccccc1)NC(=O)O[C@H]1CCOC1)S(=O)(=O)c1ccc(N)cc1` [Compound 168, 4-Amino-N-((2 syn,3S)-2-Hydroxy-4-phenyl-3-((S)-tetrahydrofuran-3-yloxycarbonylamino)-butyl)-N-isobutyl-benzenesulfonamide], the IC90 in assay [1] (setting [5]) is under 100 nM.
Consider `COc1ccc(S(=O)(=O)N(CC2CCCC2)C[C@@H](O)[C@H](Cc2ccccc2)NC(=O)O[C@@H]2CCN(C(=O)OC(C)(C)C)C2)cc1` [Compound 184], for which the Ki at HIV-1 protease (setting [2]) amounted to 5 nM.
With `COc1ccc(S(=O)(=O)N(CC2CCCC2)CC(O)C(Cc2ccccc2)NC(=O)OC2CCNC2)cc1` (stereo not drawn) [Compound 185], the Ki at HIV-1 protease (setting [2]) came to 3.5 nM.
For `CCC(C)C(NC(=O)OCc1ccccc1)C(=O)NC(Cc1ccccc1)C(O)CN(Cc1ccccc1)S(=O)(=O)Cc1ccccc1` (stereo not drawn) [Compound 186], the Ki at HIV-1 protease (setting [2]) stood at 140 nM.
Regarding `CCC(C)C(NC(=O)OCc1ccccc1)C(=O)NC(Cc1ccccc1)C(O)CN(CC(C)C)S(=O)(=O)c1ccc(F)c(NC(C)=O)c1` [Compound 187, Benzyloxycarbonyl-(L)-isoleucine-N-(5-((3-amino-(2 syn,3S)-2-hydroxy-4-phenyl-butyl)-isobutyl-sulfamoyl)-2-fluoro-phenyl)-acetamide], at HIV-1 protease (setting [2]), the inhibitory constant (Ki) came to 0.3 nM. Also, the IC90 in assay [1] (setting [4]) was 101 to 1000 nM.
Take `CCC(C)C(NC(=O)c1cnc2ccccc2n1)C(=O)NC(Cc1ccccc1)C(O)CN(CC(C)C)S(=O)(=O)c1ccc(F)c(NC(C)=O)c1` (stereo not drawn) [Compound 188]: the Ki at HIV-1 protease (setting [2]) was 11.5 nM. In addition, the IC90 in assay [1] (setting [4]) is 1000 to 10000 nM.
In the case of `CC(=O)Nc1ccc(S(=O)(=O)N(CC(C)C)C[C@@H](O)[C@H](Cc2ccccc2)NC(=O)C(C)(C)NC(=O)OC(C)(C)C)cc1` [Compound 189], the Ki on HIV-1 protease (setting [2]) came to 5500 nM.
`CC(=O)Nc1ccc(S(=O)(=O)N(CC(C)C)CC(O)C(Cc2ccccc2)NC(=O)C(CC(N)=O)NC(=O)c2ccc3ccccc3n2)cc1` (stereo not drawn) [Compound 193]: the Ki on HIV-1 protease (setting [2]) was found to be 400 nM.
In the case of `CC(C)CN(CC(O)C(Cc1ccccc1)NC(=O)C(CC(N)=O)NC(=O)c1ccc2ccccc2n1)S(=O)(=O)c1ccc(-c2ccon2)s1` (stereo not drawn) [Compound 194], the Ki on HIV-1 protease (setting [2]) was 350 nM.
Turning to `COc1ccc(S(=O)(=O)N(CC2CCCC2)C[C@@H](O)[C@H](CC2CCCCC2)NC(=O)O[C@H]2CCOC2)cc1` [Compound 195, N-((2 syn,3S)-4-Cyclohexyl-2-hydroxy-3-((S)-tetrahydrofuran-3-yloxycarbonylamino)-butyl)-N-cyclopentylmethyl-4-methoxy-benzenesulfonamide], the Ki on HIV-1 protease (setting [2]) amounted to 0.2 nM.
`CC(=O)Nc1ccc(S(=O)(=O)N(CC(C)C)C[C@@H](O)[C@H](Cc2ccccc2)NC(=O)C(=O)C(C)(C)C)cc1` [Compound 1001]: the Ki on HIV-1 protease (setting [2]) worked out at 220 nM.
For the molecule `CC(=O)Nc1ccc(S(=O)(=O)N(CC(C)C)C[C@@H](O)[C@H](Cc2ccccc2)NC(=O)C[C@H]2CNC(=O)C2)cc1` [Compound 1002], at HIV-1 protease (setting [2]), the Ki amounted to 28 nM.
For `CC(C)CN(C[C@@H](O)[C@H](Cc1ccccc1)NC(=O)O[C@H]1CCOC1)S(=O)(=O)c1cccnc1` [Compound 1003], the Ki on HIV-1 protease (setting [2]) is 8 nM.
Regarding `CC(C)CN(C[C@@H](O)[C@H](Cc1ccccc1)NC(=O)O[C@H]1CCOC1)S(=O)(=O)c1ccc(O)c(N)c1` [Compound 1004], the Ki on HIV-1 protease (setting [2]) was 0.2 nM. Besides, the IC90 in assay [1] (setting [4]) was under 100 nM.
As to `COc1ccc(S(=O)(=O)N(C)C[C@@H](O)[C@H](Cc2ccccc2)NC(=O)O[C@H]2CCOC2)cc1` [Compound 1005], the Ki at HIV-1 protease (setting [2]) came out at 250 nM.
The same measure, in the same setting: the result for `C=C(C)CN(C[C@@H](O)[C@H](Cc1ccccc1)NC(=O)O[C@H]1CCOC1)S(=O)(=O)c1ccc(OC)cc1` [Compound 1006] reads 8 nM; that for `COc1ccc(S(=O)(=O)N(CC2CCCO2)CC(O)C(Cc2ccccc2)NC(=O)OC2CCOC2)cc1` (stereo not drawn) [Compound 1007], 42 nM; that for `COc1ccc(S(=O)(=O)N(C[C@@H](O)[C@H](Cc2ccccc2)NC(=O)O[C@H]2CCOC2)CC(C)(C)CO)cc1` [Compound 1009], 20 nM.
Take `COc1ccc(S(=O)(=O)N(C[C@@H](O)[C@H](Cc2ccccc2)NC(=O)O[C@H]2CCOC2)CC(C)(C)O)cc1` [Compound 1010]: the Ki at HIV-1 protease (setting [2]) was found to be 20 nM.
Same read-out and setting: the value for `COc1ccc(S(=O)(=O)N(C[C@@H](O)[C@H](Cc2ccccc2)NC(=O)O[C@H]2CCOC2)C2CCNCC2)cc1` [Compound 1011] was 1500 nM; that for `COc1ccc(S(=O)(=O)N(C[C@@H](O)[C@H](Cc2ccccc2)NC(=O)O[C@H]2CCOC2)CN2CCCCC2)cc1` [Compound 1013] was 1500 nM.
`COc1ccc(S(=O)(=O)N(CCN2CCCCC2)C[C@@H](O)[C@H](Cc2ccccc2)NC(=O)O[C@H]2CCOC2)cc1` [Compound 1014]: at HIV-1 protease (setting [2]), the Ki was 9300 nM.
With `Nc1ccc(S(=O)(=O)N(CC2CCCC2)C[C@@H](O)[C@H](Cc2ccccc2)NC(=O)O[C@H]2CCOC2)cc1N` [Compound 1015], the affinity at HIV-1 protease corresponds to a Ki of 19 nM. Also, the concentration for an effect of 90% (IC90) in assay [1] (setting [5]) was under 100 nM.
